# Measurements reported in PMC9822036, “Virtual Screening, Synthesis, and Biological Evaluation of Some Carbohydrazide Derivatives as Potential DPP-IV Inhibitors” (Molecules, 2022).
# Tests used:
# [1] = biological target: T1, DPP-IV enzyme (Homo sapiens, UniProt P27487); experiment: In vitro DPP-IV enzymatic assay; format: biochemical; conditions: means of three independent determinations
# T1 construct: purchased Cayman Chemical (only as the URL of the kit insert) 700210
# Source text: The prepared compounds were investigated in vitro for their ability to inhibit the DPP-IV enzyme, and the detailed method is already described in our previously published paper.
# [2] = tested on: STZ-induced diabetic rats; experiment: In vivo antidiabetic activity, STZ-induced T2DM model, fasting blood glucose; set-up: species or system Wistar rats; conditions: compounds 50 mg/kg, sitagliptin 10 mg/kg, daily for 21 days, six rats
# Source text: The antihyperglycemic potential of certain compounds was investigated in Wistar rats. STZ-induced diabetic rats were employed for the antihyperglycemic testing. The animal experiments were approved by the Institutional Animal Ethics Committee (IAEC) in New Delhi, India (Protocol Number: IAEC/MCP/009/2020). During the research period, the Committee for the Purpose of Control and Supervision of Experiments on Animals (CPCSEA) and IAEC criteria for animal care were followed.
# Rats were given a high-fat diet after one week of acclimation. Diabetes was induced in the animals as per the method each described in [25]. Rats were then divided into six groups with six animals. Group I served as normal control with normal rats receiving the vehicle only. Group II served as diabetes control in which rats received the vehicle only. […] Groups IV, V, and VI served as test groups and received compounds 1b, 5b, and 4c, respectively, at doses of 50 mg/kg b.w. The diabetic rats were given the tested compound suspended in 0.5% w/v CMC every day for 21 days. On days 1, 7, 14, and 21, blood samples were taken from the tail veins of each animal that had fasted overnight. A glucometer was used to measure blood glucose levels.
# [3] = tested on: ob/ob mice; conditions: 10 mg/kg p.o., cited from earlier work
# [4] = tested on: rats; experiment: Acute toxicity studies (OECD guideline 423); format: in vivo; conditions: oral, 500 mg/kg body weight, monitored for 72 h
# Procedure: Acute toxicity studies were performed as per the OECD guideline 423. For compounds 1b, 4c, and 5b, three groups of six rats weighing 80–120 g were starved overnight and given the test compounds orally at doses of 200, 500, 1000, and 2000 mg/kg body weight. The animals were monitored for 72 h, for symptoms of acute toxicity, such as increased or reduced motor activity, tremors, convulsions, and drowsiness, among others. […] As a result, the OECD-recommended dosage for assessing the antidiabetic action was set at 50 mg/kg (i.e., […]).
# T1 sequence (P27487 whole entry): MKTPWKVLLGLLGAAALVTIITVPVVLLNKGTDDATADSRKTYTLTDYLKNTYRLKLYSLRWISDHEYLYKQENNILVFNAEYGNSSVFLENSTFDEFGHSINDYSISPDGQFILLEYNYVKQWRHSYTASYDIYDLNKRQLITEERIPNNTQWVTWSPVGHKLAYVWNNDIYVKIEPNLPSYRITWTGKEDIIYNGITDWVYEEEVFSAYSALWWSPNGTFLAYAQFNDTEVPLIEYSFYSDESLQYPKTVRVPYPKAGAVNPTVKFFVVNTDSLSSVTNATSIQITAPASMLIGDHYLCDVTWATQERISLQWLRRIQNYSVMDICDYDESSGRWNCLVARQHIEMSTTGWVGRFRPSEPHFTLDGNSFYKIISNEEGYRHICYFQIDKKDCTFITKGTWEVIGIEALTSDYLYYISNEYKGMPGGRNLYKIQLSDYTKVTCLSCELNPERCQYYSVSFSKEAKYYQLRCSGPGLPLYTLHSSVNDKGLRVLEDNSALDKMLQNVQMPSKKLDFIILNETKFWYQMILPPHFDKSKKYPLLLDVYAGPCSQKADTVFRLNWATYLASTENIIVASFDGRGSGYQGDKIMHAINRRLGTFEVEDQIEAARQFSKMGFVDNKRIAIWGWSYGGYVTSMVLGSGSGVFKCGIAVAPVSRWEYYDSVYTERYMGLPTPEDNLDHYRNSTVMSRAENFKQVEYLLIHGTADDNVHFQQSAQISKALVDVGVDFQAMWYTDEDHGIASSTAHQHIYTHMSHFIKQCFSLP
Structure (SMILES),inhibition at 50 µM [1] [%],IC50 [1] [µM],further results
"COc1ccc(/C=N/NC(=O)C2=C(C)NC(=O)NC2c2ccccc2)cc1 (stereo not shown) [Compound 1d, (E)-N-(4-Methoxybenzylidene)-6-methyl-2-oxo-4-phenyl-1,2,3,4-tetrahydropyrimidine-5-carbohydrazide]",57.74 ± 0.38,38.26 ± 0.005,–
"N[C@@H](CC(=O)N1CCn2c(nnc2C(F)(F)F)C1)Cc1cc(F)c(F)cc1F [Sitagliptin, reference compound]",–,–,"Fasting Blood Glucose ± SEM, On Day 1 [2]: 240.16 ± 9.88 mg/dL; Fasting Blood Glucose ± SEM, On Day 7 [2]: 178.66 ± 6.92 mg/dL; Fasting Blood Glucose ± SEM, On Day 14 [2]: 175.16 ± 8.61 mg/dL; Fasting Blood Glucose ± SEM, On Day 21 [2]: 133.50 ± 11.80 mg/dL; Long-term inhibition ([3]; after 8 h): > 70%; Glucose excursion ([3]; at 8 h): 35%"
"COc1ccc(/C=N/NC(=O)C2=C(C)NC(=O)NC2c2ccccc2Cl)cc1 (stereo not shown) [Compound 2d, (E)-4-(2-Chlorophenyl)-N-(4-methoxybenzylidene)-6-methyl-2-oxo-1,2,3,4-tetrahydropyrimidine-5-carbohydrazide]",64.78 ± 0.33,31.72 ± 0.0021,–
"CC1=C(C(=O)N/N=C/c2ccccc2O)C(c2ccc(F)cc2F)NC(=O)N1 (stereo not shown) [Compound 5b, (E)--4-(2,4-Difluorophenyl)-N-(2-hydroxybenzyldene)-6-methyl-2-oxo-1,2,3,4-tetrahydropyrimidine-5-carbohydrazide]",70.7 ± 0.37,28.13 ± 0.0029,"Fasting Blood Glucose ± SEM, On Day 1 [2]: 253.83 ± 4.49 mg/dL; Fasting Blood Glucose ± SEM, On Day 7 [2]: 182.00 ± 8.11 mg/dL; Fasting Blood Glucose ± SEM, On Day 14 [2]: 167.16 ± 6.23 mg/dL; Fasting Blood Glucose ± SEM, On Day 21 [2]: 157.33 ± 5.75 mg/dL; Fasting Blood Glucose ± SEM, On Day 21 ([2]; listed as Compound 5b): 157.33 ± 5.75 mg/dL; Acute toxicity, mortality [4]: more than half of the animals died"
"CC1=C(C(=O)N/N=C/c2ccccc2O)C(c2ccccc2Cl)NC(=O)N1 (stereo not shown) [Compound 2b, (E)-4-(2-Chlorophenyl)-N-(2-hydroxybenzylidene)-6-methyl-2-oxo-1,2,3,4-tetrahydropyrimidine-5-carbohydrazide]",65.5 ± 0.08,31.93 ± 0.0029,–
"COc1ccccc1/C=N/NC(=O)C1=C(C)NC(=O)NC1c1ccccc1Cl (stereo not shown) [Compound 2c, (E)-4-(2-Chlorophenyl)-N-(2-methoxybenzylidene)-6-methyl-2-oxo-1,2,3,4-tetrahydropyrimidine-5-carbohydrazide]",63.25 ± 0.05,33.97 ± 0.0025,–
"COc1ccccc1/C=N/NC(=O)C1=C(C)NC(=O)NC1c1ccccc1 (stereo not shown) [Compound 1c, (E)-N-(2-Methoxybenzylidene)-6-methyl-2-oxo-4-phenyl-1,2,3,4-tetrahydropyrimidine-5-carbohydrazide]",56.47 ± 0.37,39.72 ± 0.0027,–
"CC1=C(C(=O)N/N=C/c2ccccc2)C(c2ccccc2Cl)NC(=O)N1 (stereo not shown) [Compound 2a, (E)-N-Benzylidene-4-(2-chlorophenyl)-6-methyl-2-oxo-1,2,3,4-tetrahydropyrimidin-5-carbohydrazide]",61.25 ± 0.16,32.41 ± 0.0033,–
"COc1ccccc1/C=N/NC(=O)C1=C(C)NC(=O)NC1c1ccccc1F (stereo not shown) [Compound 4c, (E)--4-(2-Fluorophenyl)-N-(2-methoxybenzyldene)-6-methyl-2-oxo-1,2,3,4-tetrahydropyrimidine-5-carbohydrazide]",60.4 ± 0.08,34.94 ± 0.0016,"Fasting Blood Glucose ± SEM, On Day 1 [2]: 264.66 ± 5.70 mg/dL; Fasting Blood Glucose ± SEM, On Day 7 [2]: 237.16 ± 9.01 mg/dL; Fasting Blood Glucose ± SEM, On Day 14 [2]: 194.83 ± 4.81 mg/dL; Fasting Blood Glucose ± SEM, On Day 21 [2]: 169.66 ± 8.53 mg/dL; Acute toxicity, mortality [4]: more than half of the animals died"
"CC1=C(C(=O)N/N=C/c2ccccc2)C(c2ccccc2)NC(=O)N1 (stereo not shown) [Compound 1a, (E)-N-Benzylidene-6-methyl-2-oxo-4-phenyl-1,2,3,4-tetrahydropyrimidine-5-carbohydrazide]",40.74 ± 0.38,58.95 ± 0.0012,–
"CC1=C(C(=O)N/N=C/c2ccccc2O)C(c2ccccc2)NC(=O)N1 (stereo not shown) [Compound 1b, (E)-N-(2-Hydroxybenzylidene)-6-methyl-2-oxo-4-phenyl-1,2,3,4-tetrahydropyrimidine-5-carbohydrazide]",42.69 ± 0.28,54.73 ± 0.0025,"Fasting Blood Glucose ± SEM, On Day 1 [2]: 261.00 ± 8.44 mg/dL; Fasting Blood Glucose ± SEM, On Day 7 [2]: 215.03 ± 3.29 mg/dL; Fasting Blood Glucose ± SEM, On Day 14 [2]: 187.05 ± 6.48 mg/dL; Fasting Blood Glucose ± SEM, On Day 21 [2]: 160.12 ± 6.18 mg/dL; Acute toxicity, mortality [4]: more than half of the animals died"

# Second part, led by results:
inhibition at 50 µM [1] [%],IC50 [1] [µM],Structure (SMILES),further results
64.78 ± 0.33,30.47 ± 0.0025,CC1=C(C(=O)N/N=C/c2ccccc2)C(c2ccccc2F)NC(=O)N1 (stereo not shown) [Compound 4a],–
61.25 ± 0.16,33.91 ± 0.0029,"CC1=C(C(=O)N/N=C/c2ccccc2)C(c2ccc(Cl)cc2Cl)NC(=O)N1 (stereo not shown) [Compound 3a, (E)-N-Benzylidene-4-(2,4-dichlorophenyl)-6-methyl-2-oxo-1,2,3,4-tetrahydropyrimidine-5-carbohydrazide]",–
61 ± 0.08,33.79 ± 0.0021,"CC1=C(C(=O)N/N=C/c2ccccc2O)C(c2ccc(Cl)cc2Cl)NC(=O)N1 (stereo not shown) [Compound 3b, (E)--4-(2,4-Dichlorophenyl)-N-(2-hydroxybenzyldene)-6-methyl-2-oxo-1,2,3,4-tetrahydropyrimidine-5-carbohydrazide]",–
63.8 ± 0.16,31.75 ± 0.0027,"CC1=C(C(=O)N/N=C/c2ccccc2O)C(c2ccccc2F)NC(=O)N1 (stereo not shown) [Compound 4b, (E)--4-(2-Fluorophenyl)-N-(2-hydroxybenzyldene)-6-methyl-2-oxo-1,2,3,4-tetrahydropyrimidine-5-carbohydrazide]",–
61 ± 0.08,33.73 ± 0.0024,COc1ccccc1/C=N/NC(=O)C1=C(C)NC(=O)NC1c1ccc(Cl)cc1Cl (stereo not shown) [Compound 3c],–
57.74 ± 0.38,38.62 ± 0.0025,"COc1ccc(/C=N/NC(=O)C2=C(C)NC(=O)NC2c2ccccc2F)cc1 (stereo not shown) [Compound 4d, (E)--4-(2-Fluorophenyl)-N-(4-methoxybenzyldene)-6-methyl-2-oxo-1,2,3,4-tetrahydropyrimidine-5-carbohydrazide]",–
44.2 ± 0.28,65.31 ± 0.0021,"CC1=C(C(=O)N/N=C/c2ccccc2)C(c2ccc(F)cc2F)NC(=O)N1 (stereo not shown) [Compound 5a, (E)-N-Benzylidene-4-(2,4-difluorophenyl)-6-methyl-2-oxo-1,2,3,4-tetrahydropyrimidine-5-carbohydrazide]",–
58.54 ± 0.27,37.63 ± 0.0026,COc1ccccc1/C=N/NC(=O)C1=C(C)NC(=O)NC1c1ccc(F)cc1F (stereo not shown) [Compound 5c],–
